Data published in US4050989A, “Process of preparing desacyl-pepsidine with bacillus pumilus” (Eisai Co., Ltd., priority 1974, dated 1977).

Legend:
[1] = molecular target: pepsin (Sus scrofa, UniProt P00791); experiment: Pepsin-inhibitory activity (method of Murao and Satoi); format: biochemical
Description: viii. Pepsin-inhibitory activity: Pepsin-inhibitory activity of DA-pepsidine was determined using the method reported by S. Murao and S. Satoi in Agr. Biol. Chem. Japan 34 (8) 1265 - 7 (1970). […] While, that of pepsidine C is 0.86 μg.

[2] = Solubility in solvents; format: physicochemical

Sequence of pepsin (P00791 60-385): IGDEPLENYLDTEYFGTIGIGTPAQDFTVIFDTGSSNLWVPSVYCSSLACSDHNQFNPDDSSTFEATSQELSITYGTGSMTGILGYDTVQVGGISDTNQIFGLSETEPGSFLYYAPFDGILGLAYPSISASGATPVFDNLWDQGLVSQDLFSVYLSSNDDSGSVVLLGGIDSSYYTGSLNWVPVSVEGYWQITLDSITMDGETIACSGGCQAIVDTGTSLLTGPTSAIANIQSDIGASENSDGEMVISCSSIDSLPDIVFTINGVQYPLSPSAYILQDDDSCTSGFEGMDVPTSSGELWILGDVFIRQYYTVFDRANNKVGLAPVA

amount which gives 50% inhibition against 100 μg of pepsin [1] [µg]	Solubility ([2]; in acetic acid and methanol)	Solubility ([2]; in acetone and ethylether)	Solubility ([2]; in ethanol, n-butanol and pyridine)	Compound
0.82	Easily soluble	slightly soluble	soluble	CC(C)CC(NC(=O)[C@H](C)NC(=O)CC(O)C(CC(C)C)NC(=O)[C@@H](NC(=O)[C@@H](N)C(C)C)C(C)C)C(O)CC(=O)O (some centres unmarked) [DA-pepsidine, valyl-valyl-4-amino-3-hydroxy-6-methyl-heptanoyl alanyl-4-amino-3-hydroxy-6-methyl-heptanoic acid]
0.86	–	–	–	CC(=O)N[C@H](C(=O)N[C@H](C(=O)NC(CC(C)C)C(O)CC(=O)N[C@@H](C)C(=O)NC(CC(C)C)C(O)CC(=O)O)C(C)C)C(C)C (some centres unmarked) [pepsidine C, reference compound]
